# From US20150307841A1, “Composition for Promoting Differentiation and Proliferation of Neural Stem Cell and Neural Precursor Cell” (priority 2014, published 2015)
# Entries after “also recorded” stand apart in the source; their conditions may differ.
# Experiments:
# Type in all cases: in vivo, rat
# [1] = tested on: BrdU-positive neural precursor cells in the hippocampal region; experiment: Immunohistochemical analysis of BrdU in hippocampus after soyasaponin I administration (Experimental Example 1)
# Experimental: After conducting the three behavioral tests, the rats were sacrificed for immunohistochemical analysis.
# The brain slices of the test animals of the normal group (Sham), the IBO group and the Soya-I group were immunostained by the method of Heo H et al. (J Ethnopharmacol, 2009) with modifications. The rats were transcardially perfused with 4% PFA in PBS. Following fixation by immersing in 4% PFA in PBS for 3 hours, the brain tissues were cryoprotected in 30% sucrose in PBS, frozen with an optimal cutting temperature (OCT) compound and stored at −80° C.
# The brain tissue blocks were cryosectioned through the coronal plane at a thickness of 35 μm. The brain tissue sections were stored at 4° C. in a storing solution (30% glycerol and 30% ethylene glycol in PBS). The stored brain slices were permeabilized in 0.5% Triton X-I00 for 20 minutes and incubated at 37° C. for 30 minutes in 2 N HCl. Then, they were blocked in 15% normal serum and 3% bovine serum albumin (BSA, bio-WORLD, Dublin, Ohio, USA) and 0.1% Triton X-100 for 2 hours under a free-floating condition.
# The sections were incubated for 16 hours at 4° C. with primary antibodies against bromodeoxyuridine (BrdU) (Sigma). […]
# In the immunohistochemical analysis, the number of the cells immnunostained against each antibody was counted from 5 or 6 hippocampal coronal sections. […]
# [2] = tested on: GAD67-, VGluT1-, ChAT-positive neurons and OX42 reactive microglia in the hippocampus; experiment: Immunohistochemical analysis of GAD67, VGluT1, ChAT, OX42 in hippocampus (Experimental Example 1)
# Experimental: Immunostaining was carried out using antibodies against VGluT1 (diluted 1:500, Chemicon), ChAT (1:500, Chemicon), GFAP (1:1,000, Chemicon), tyrosine hydroxylase (TH, 1:500, Chemicon) and OX42 (CD11b/c, 1:250, Serotec) as primary antibodies instead of the anti-BrdU antibodies used in (4). The other process was the same as in (4), except that incubation was performed at 37° C. for 30 minutes in 2 N HCl.
# (§1) In the immunohistochemical analysis, the number of the cells immnunostained against each antibody was counted from 5 or 6 hippocampal coronal sections. For each staining analysis, every fifth cryosections of the hippocampal region of brain tissues (AP: bregma −4.5 to −4.3 mm) were taken for immunostaining. The number of the immnunostained cells was represented as an average of number of cells in the hippocampal region of one brain slice.
# (§2) The number of the VGluT1- and GAD-positive cells in the brain slice samples 1 week and 4 weeks after the administration of soyasaponin I was presented per microscopic field (×400-VGluT1, ×800-GAD67) and the number of the ChAT-positive cells was presented per each hippocampal region (10-12 confocal laser microscopic fields). 5-11 animals were used per group. Western blotted membranes were analyzed using the multi-gauge, bio-imaging program on LAS-4000 Mini (Fujifilm Life Science, Stamford, Conn., USA). Densitometeric analysis of the expression ratios of VGluT1/β-actin, GAD65/67/β-actin and ChAT/β-actin was normalized to the vehicle group.
# [3] = tested on: newly born neural precursor cells in hippocampal tissue slices; experiment: Immunohistochemical analysis of BrdU and subtype markers 4 weeks after oral administration (Experimental Example 2); parameters: Number of BrdU-positive cells and newly born dentate granular cells (DGCs) versus IBO group / Number of cells expressing both NeuN and BrdU versus ibotenic acid-administered group / Cholinergic neurons (total endogenous ChAT-positive cells) at 4 weeks versus 1 week after oral administration: dose or concentration left out as unconfirmed
# Source text: In order to confirm the survival and differentiation of newly born neural precursor cells 4 weeks after the oral administration of soyasaponin I, it was observed whether the BrdU-expressing cells express a mature neuron marker and cell subtype markers (NeuN, VGluT1, GAD67) simultaneously.
# After conducting the 3 behavioral tests, the rats were sacrificed for immunohistochemical analysis. Over 5 animals from each group were used for the immunohistochemical analysis.
# Following the same procedure as described in (4) of Experimental Example 2, incubation was performed at 37° C. for 30 minutes in 2 N HCl after permeabilization in 0.5% Triton X-100 for 20 minutes for double staining of BrdU/subtype cell markers ([…], VGluT1, NeuN).
# as §1, §2
# [4] = 4 weeks after oral administration
# [5] = soyasaponin I 10 mg/g group (so in the source), 4 weeks after oral administration
# [6] = soyasaponin I group (so in the source), 4 weeks after oral administration
compound,measurement,setting,value
C[C@@H]1O[C@@H](O[C@H]2[C@H](O[C@H]3[C@H](O[C@H]4CC[C@@]5(C)[C@@H](CC[C@]6(C)[C@@H]5CC=C5[C@@H]7CC(C)(C)C[C@@H](O)[C@]7(C)CC[C@]56C)[C@@]4(C)CO)O[C@H](C(=O)O)[C@@H](O)[C@@H]3O)O[C@H](CO)[C@H](O)[C@@H]2O)[C@H](O)[C@H](O)[C@H]1O [soyasaponin I],Dose with greatest rise in number of BrdU-positive cells,[1]; 10 mg/kg oral,largest increase
same,Number of BrdU-positive cells in the dentate gyrus of the hippocampus versus IBO,"[1]; all doses (5, 10, 20 mg/kg) oral",increased significantly
same,Number of VGluT1-positive cells,[2]; 10 mg/kg oral,57.33±2.43 cells per microscopic field
same,Number of VGluT1-positive cells compared to the IBO group,"[2]; 5, 10, 20 mg/kg oral",increased up to the level of the normal group
same,OX42 (reactive microglia) intensity normalized to the normal group,"[2]; DG and CA1 regions, 5, 10, 20 mg/kg",decreased in a dose-dependent manner; also recorded: decreased again to the level of the normal model
same,Number of BrdU-positive cells in hippocampal tissue slices at 4 weeks versus 1 week after oral administration,[3]; [4],reduced to less than half
same,"Ratio of the BrdU-positive cells that express VGluT1, NeuN or GAD67 at the same time",[3]; [4],no significant difference
same,"BrdU-positive cells among hippocampal cells expressing GFAP, TH and ChAT","[3]; 4 weeks after oral administration, any group",barely detected
same,Number of BrdU-positive cells expressing GAD67 versus IBO group,[3]; [5],2.8 times
same,Number of BrdU-positive cells expressing VGluT1 versus IBO group,[3]; [5],higher
same,Cholinergic neurons (total endogenous ChAT-positive cells) at 4 weeks versus 1 week after oral administration,[3]; soyasaponin I group (so in the source),maintained at a similar level
same,Number of BrdU-positive cells and newly born dentate granular cells (DGCs) versus IBO group,[3]; [6],approximately 3.5 fold
same,Number of cells expressing both NeuN and BrdU versus ibotenic acid-administered group,[3]; [6],3 times
